For data set [1], the system named is Ang II. As to conditions: reaction conditions identical; material expressed in insect cells; cited from earlier work.
Data set [2] deals with Ang II. Kind of data set: Determination of specific ACE2 activity (conversion of Ang II to Ang 1-7, RP-HPLC). Type of data set: biochemical. The method, then:
Furthermore, both Ang II and Ang 1-7 peaks were recognised and integrated in the chromatograms. The peptide concentrations were determined using calibration curves. Enzymatic conversion and specific enzyme activity were also determined.

The subject of the next data set is human tumour cell line. Kind of data set: Suppression of tumour cell growth (cell count in haemocytometer). Type of data set: cell-based. As to conditions: up to day 17; for cell growth (cell count): culture medium RPMI 1640 10% FCS supplemented with the substance alone (100 nM peptide or 20 μg/ml sACE2), versus control medium. The method, then:
A human tumour cell line was sowed at a density of 2.5×10^4 cells/ml in 200 μl RPMI 1640 in 10% FCS in 96-well plates and incubated at 37° C. and 5% CO2. The influence of various active components of the RAS were evaluated using the following test systems. All the analyses were carried out as triple determinations (sACE2=soluble ACE2 without C-terminal membrane domain): • Condition A. Culture medium RPMI 1640 with 10% FCS as control • Condition B. Culture medium supplemented with 100 nM Ang II • Condition C. Culture medium supplemented with 100 nM Ang 1-7 • Condition D. Culture medium supplemented with 20 μg/ml sACE2 • Condition E. Culture medium supplemented with 20 μg/ml sACE2 and […]
Every day 100 μl of medium was removed and replaced by the same volume of fresh specific medium. The cell count was determined on days 2, 3, 6, 8, 10, 13, 15 and 17 by multiple counting in a haemocytometer. A separately prepared test plate was used for each determination.

The nature of data set [3]: Aggregation of the ACE2 preparation in physiological buffer. As to conditions: concentrated protein solution in physiological buffer. Type of data set: physicochemical. From the text: The dimer-ACE2 preparation produced according to Example 1 is present as a stable, highly pure and concentrated protein solution in physiological buffer and can be stored and administered […].
The ACE2 preparation also has full enzyme activity.

Data set [4] can be described thus: Terminal half-life measured in various species. Type of data set: in vivo. The note with it: including rhesus monkeys. From the text:
ACE2 is metabolised slowly due to the large, highly branched and complex sugar moiety.

[5] abbreviates: 250 ng/ml ACE2, 80 μM Ang II, pH 6.5, 18 minutes at 37° C.

Regarding “ACE2 (Vickers et al.): ACE2 of Vickers et al., expressed in insect cells, same amino acid sequence, glycosylated to a considerably lesser extent”, the “catalytic ACE2 activity published by Vickers et al.” value in the data set with Ang II [1] was 3.5 s⁻¹.

Take “ACE2 preparation produced according to Example 1: Soluble section of human ACE2 expressed in CHO, fully N-glycosylated, obtained as a dimer with two Zn2+”: in the data set on Ang II [2] (setting [5]), the “catalytic activity kkat based on Ang II conversion” value was determined as 8.0 ± 0.3 s⁻¹ and the “catalytic activity kkat in relation to Ang 1-7 conversion” value was 8.8 ± 0.2 s⁻¹. The “higher activity than the figures of Vickers et al.” value in the data set on Ang II [2] (present preparation versus Vickers material) is recorded as 240%. Moreover, the “cell growth (cell count)” value in the data set on human tumour cell line was “marginally increased growth”. Further, in the data set with human tumour cell line (culture medium supplemented with 20 μg/ml sACE2 and […]), the “cell growth (cell count) in the presence of Ang II” value is given as “reduced cell growth”. Besides, in data set [3], the aggregation to multimers result is on record as “does not exhibit any aggregation to multimers”. Further, the terminal half-life entry in data set [4] is “at least 10.5 hours”.

As to “Ang 1-7: Effector peptide of the RAS, antagonist of Ang II, formed from Ang II by ACE2 (DRVYIHP; Angiotensin 1-7; UniProt P01019 25-31, looked up) [reference compound]”, the “cell growth (cell count)” value in the data set on human tumour cell line is given as “reduced cell growth”.

Consider “Asp-Arg-Val-Tyr-Ile-His-Pro-Phe (DRVYIHPF; printed: Asp-Arg-Val-Tyr-Ile-His-Pro-Phe) [Ang II, reference compound]”, for which the “cell growth (cell count)” value in the data set with human tumour cell line is listed as “distinctly increased cell growth”.

Values taken from patent US8946162B2, “Treatment of tumors” (priority 2008, dated 2015).
